Reference: ChEMBL document CHEMBL1765052, “Developing potent human uric acid transporter 1 (hURAT1) inhibitors” (J Med Chem, 2011)

How the values were obtained:
[1] = biological target: T1, Solute carrier family 22 member 12 (Homo sapiens, UniProt Q96S37); assay: Inhibition of human URAT1 expressed in xenopus oocyte assessed as inhibition of [14C]-labelled urate uptake at 50 uM after 60 mins by liquid scintillation counting; conditions: 1 h
T1 sequence (Q96S37 whole entry): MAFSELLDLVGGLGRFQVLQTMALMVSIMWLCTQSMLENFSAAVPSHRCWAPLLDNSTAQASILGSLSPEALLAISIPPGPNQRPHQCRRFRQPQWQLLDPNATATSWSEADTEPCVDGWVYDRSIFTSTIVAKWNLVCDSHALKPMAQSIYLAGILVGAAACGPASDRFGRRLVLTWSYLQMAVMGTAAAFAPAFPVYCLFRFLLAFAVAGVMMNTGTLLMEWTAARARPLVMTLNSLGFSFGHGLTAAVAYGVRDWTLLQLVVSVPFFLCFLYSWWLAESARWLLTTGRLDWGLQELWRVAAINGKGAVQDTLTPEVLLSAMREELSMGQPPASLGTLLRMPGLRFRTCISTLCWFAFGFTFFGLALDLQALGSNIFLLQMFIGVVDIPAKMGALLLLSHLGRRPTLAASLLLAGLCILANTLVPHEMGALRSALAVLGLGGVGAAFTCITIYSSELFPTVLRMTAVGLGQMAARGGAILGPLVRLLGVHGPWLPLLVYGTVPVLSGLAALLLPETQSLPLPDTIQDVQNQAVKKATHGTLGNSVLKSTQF

[2] = biological target: T1, Solute carrier family 22 member 12; assay: Inhibition of human URAT1 expressed in xenopus oocyte assessed as inhibition of [14C]-labelled urate uptake after 60 mins by liquid scintillation counting

Row | Structure (SMILES) | inhibition at 50 µM [1] [%] | IC50 [2] [nM]
1 | CCc1oc2cc(O)ccc2c1C(=O)c1cc(Br)c(O)c(Br)c1 | 99.8 | –
2 | CCc1oc2ccccc2c1C(=O)c1ccc(OC)cc1 | 13.3 | –
3 | CCc1oc2ccc(OC)cc2c1C(=O)c1ccc(OC)cc1 | 24.3 | –
4 | CCc1cc2c(C(=O)c3ccc(OC)cc3)c(OC)ccc2o1 | 6.1 | –
5 | CCc1cc2cc(OC)cc(C(=O)c3ccc(OC)cc3)c2o1 | 5.2 | –
6 | CCc1oc2cc(OC)ccc2c1C(=O)c1ccc(OC)cc1 | 6.2 | –
7 | CCc1cc2c(C(=O)c3ccc(OC)cc3)cc(OC)cc2o1 | 1.5 | –
8 | CCc1oc2c(OC)cccc2c1C(=O)c1ccc(OC)cc1 | 17.2 | –
9 | CCc1cc2c(C(=O)c3ccc(OC)cc3)ccc(OC)c2o1 | 7.4 | –
10 | CCc1oc2ccc(OC)cc2c1C(=O)c1ccc(O)cc1 | 92.7 | 2460
11 | CCc1oc2ccc(O)cc2c1C(=O)c1ccc(OC)cc1 | 12.9 | –
12 | CCc1oc2ccc(O)cc2c1C(=O)c1ccc(O)cc1 | 96.5 | 2490
13 | CCc1cc2c(C(=O)c3ccc(O)cc3)c(OC)ccc2o1 | 88.2 | 6680
14 | CCc1cc2c(C(=O)c3ccc(OC)cc3)c(O)ccc2o1 | 28.7 | –
15 | CCc1cc2c(C(=O)c3ccc(O)cc3)c(O)ccc2o1 | 51.5 | –
16 | CCc1cc2cc(OC)cc(C(=O)c3ccc(O)cc3)c2o1 | 60 | 33700
17 | CCc1cc2cc(O)cc(C(=O)c3ccc(OC)cc3)c2o1 | 9.3 | –
18 | CCc1cc2cc(O)cc(C(=O)c3ccc(O)cc3)c2o1 | 41 | –
19 | CCc1oc2cc(OC)ccc2c1C(=O)c1ccc(O)cc1 | 92.7 | –
20 | CCc1oc2cc(O)ccc2c1C(=O)c1ccc(OC)cc1 | 48.3 | –
21 | CCc1oc2cc(O)ccc2c1C(=O)c1ccc(O)cc1 | 92.1 | 1130

Row | Structure (SMILES) | inhibition at 50 µM [1] [%] | IC50 [2] [nM]
22 | CCc1cc2c(C(=O)c3ccc(O)cc3)cc(OC)cc2o1 | 62.4 | 19700
23 | CCc1cc2c(C(=O)c3ccc(OC)cc3)cc(O)cc2o1 | 12.4 | –
24 | CCc1cc2c(C(=O)c3ccc(O)cc3)cc(O)cc2o1 | 41 | –
25 | CCc1oc2c(O)cccc2c1C(=O)c1ccc(OC)cc1 | 18.2 | –
26 | CCc1cc2c(C(=O)c3ccc(OC)cc3)ccc(O)c2o1 | 0.8 | –
27 | CCc1cc2c(C(=O)c3ccc(O)cc3)ccc(O)c2o1 | 93.8 | 3940
28 | CCc1oc2ccc(OC)cc2c1C(=O)c1cc(Br)c(O)c(Br)c1 | 99.9 | –
29 | CCc1oc2ccc(O)cc2c1C(=O)c1cc(Br)c(O)c(Br)c1 | 99.9 | 189
30 | CCc1cc2c(C(=O)c3cc(Br)c(O)c(Br)c3)c(OC)ccc2o1 | 99.6 | 358
31 | CCc1cc2c(C(=O)c3cc(Br)c(O)c(Br)c3)c(O)ccc2o1 | 99.9 | 83
32 | CCc1cc2cc(OC)cc(C(=O)c3cc(Br)c(O)c(Br)c3)c2o1 | 99 | –
33 | CCc1cc2cc(O)cc(C(=O)c3cc(Br)c(O)c(Br)c3)c2o1 | 99.8 | –
34 | CCc1oc2cc(OC)ccc2c1C(=O)c1cc(Br)c(O)c(Br)c1 | 99.9 | –
35 | CCc1cc2c(C(=O)c3cc(Br)c(O)c(Br)c3)cc(Br)c(O)c2o1 | 99.9 | 177
36 | CCc1oc2cc(Br)c(O)c(Br)c2c1C(=O)c1ccc(OC)cc1 | 76.5 | 23500
37 | CCc1oc2c(Br)c(O)c(Br)cc2c1C(=O)c1ccc(OC)cc1 | 99.8 | 667
38 | CCc1cc2c(C(=O)c3ccc(OC)cc3)cc(Br)c(O)c2o1 | 99.3 | 772
39 | CCc1oc2ccccc2c1C(=O)c1ccc(O)cc1 [BENZARONE] | 90.8 | –
40 | CCc1oc2ccccc2c1C(=O)c1cc(Br)c(O)c(Br)c1 [BENZBROMARONE] | 99.9 | –
41 | CCCN(CCC)S(=O)(=O)c1ccc(C(=O)O)cc1 [PROBENECID] | 35.7 | –
